Patent US11242337B2, “Compounds useful for treating gastrointestinal tract disorders” (Ardelyx, Inc., priority 2017, dated 2022)

Molecular target: T1, NHE3 (Homo sapiens, UniProt P48764)
T1 construct: expressed in transfected cells
T1 sequence (P48764 26-834): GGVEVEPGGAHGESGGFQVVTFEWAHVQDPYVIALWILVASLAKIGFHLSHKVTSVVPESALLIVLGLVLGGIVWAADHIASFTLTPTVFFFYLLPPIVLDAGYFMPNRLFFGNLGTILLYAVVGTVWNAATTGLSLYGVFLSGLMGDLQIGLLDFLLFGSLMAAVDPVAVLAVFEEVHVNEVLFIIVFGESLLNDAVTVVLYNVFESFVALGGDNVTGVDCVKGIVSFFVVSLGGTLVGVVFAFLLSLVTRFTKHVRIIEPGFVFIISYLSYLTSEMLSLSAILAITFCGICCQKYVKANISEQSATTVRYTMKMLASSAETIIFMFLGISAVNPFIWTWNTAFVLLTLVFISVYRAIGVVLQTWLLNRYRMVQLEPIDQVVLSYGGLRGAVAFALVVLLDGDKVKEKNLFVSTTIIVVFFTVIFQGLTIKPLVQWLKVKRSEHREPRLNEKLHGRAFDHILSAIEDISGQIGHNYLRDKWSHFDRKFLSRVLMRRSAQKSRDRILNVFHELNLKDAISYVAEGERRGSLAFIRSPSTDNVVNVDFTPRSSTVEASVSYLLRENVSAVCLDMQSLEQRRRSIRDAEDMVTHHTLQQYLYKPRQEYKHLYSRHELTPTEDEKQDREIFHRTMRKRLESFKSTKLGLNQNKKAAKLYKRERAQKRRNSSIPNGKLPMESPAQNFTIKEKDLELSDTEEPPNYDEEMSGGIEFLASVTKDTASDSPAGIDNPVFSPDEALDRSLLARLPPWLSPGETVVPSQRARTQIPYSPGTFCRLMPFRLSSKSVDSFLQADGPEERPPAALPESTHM
T1 sequence (Q99653 2-195 partner limits assumed): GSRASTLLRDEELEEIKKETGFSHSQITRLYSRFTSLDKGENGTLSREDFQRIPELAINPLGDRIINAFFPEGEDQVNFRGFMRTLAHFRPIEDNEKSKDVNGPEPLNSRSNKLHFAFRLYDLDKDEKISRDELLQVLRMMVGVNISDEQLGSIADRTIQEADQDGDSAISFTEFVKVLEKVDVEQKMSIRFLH
Assay: persistent inhibition of NHE3 in the cell-based assay of example 181 (4-chloro vs 4-cyano pairs)
Conditions: for IC50: cell-based assay of example 181, after washout, read-out: pIC50 (persistent) (converted); for Percent Inhibition: cell-based assay of example 181, persistent
Procedure: The following pairs of compounds differ only in the 4-position substituent (either chloro (X—Cl) or cyano (X—CN)):
The ability of compounds to inhibit human and rat NHE-3-mediated Na^+ dependent H^+ antiport after application and washout was measured using a modification of the pH sensitive dye method described above. PS120 fibroblasts stably expressing human NHE3 and NHERF2 were obtained from Mark Donowitz (Baltimore, Md.). Opossum kidney (OK) cells were obtained from the ATCC and propagated per their instructions. The rat NHE-3 gene was introduced into OK cells via electroporation, and cells were seeded into 96 well plates and grown overnight. Medium was aspirated from the wells, cells were washed once with NaCl-HEPES buffer (100 mM NaCl, 50 mM HEPES, 10 mM glucose, 5 mM KCl, 2 mM CaCl2, 1 mM MgCl2, pH 7.4), then overlayed with NaCl-HEPES buffer containing 0-30 μM test compound. After a 60 min incubation at room temperature, the test drug containing buffer was aspirated from the cells. Following aspiration, cells were washed once with NaCl-HEPES buffer without drug, then incubated for 30 min at 37° C. with NH4Cl-HEPES buffer (20 mM NH4Cl, 80 mM NaCl, 50 mM HEPES, 5 mM KCl, 2 mM CaCl2, 1 mM MgCl2, pH 7.4) containing 5 μM BCECF-AM. Cells were washed once with Ammonium free, Na^+-free HEPES (100 mM choline, 50 mM HEPES, 10 mM glucose, 5 mM KCl, 2 mM CaCl2, 1 mM MgCl2, pH 7.4) and incubated in the same buffer for 10 minutes at room temperature to lower intracellular pH. NHE-3-mediated recovery of neutral intracellular pH was initiated (10 min after compound washout) by addition of Na-HEPES buffer. […] Changes in intracellular pH were monitored using a FLIPR Tetra® (Molecular Devices, Sunnyvale, Calif.) by excitation at λex 439 to 505 nm, and measuring BCECF fluorescence at λem 538 nm. The initial rate of the fluorescence ratio change was used as a measure of NHE-mediated Na^+/H^+ activity, and reported as the change in fluorescence ratio per minute.

| Structure (SMILES) | IC50 [nM] | Percent Inhibition [%] |
| --- | --- | --- |
| C[C@@H]1CN([C@H]2Cc3c(C#N)cc(Cl)cc3[C@@H]2Oc2ccc(S(=O)(=O)N[C@@H]3CCN(CCOCCNC(=O)NCCCCNC(=O)NCCOCCN4CC[C@@H](NS(=O)(=O)c5ccc(O[C@H]6c7cc(Cl)cc(C#N)c7C[C@@H]6N6CCN[C@H](C)C6)cc5)C4)C3)cc2)CCN1 [A-CN, 3-(2-{2-[(3R)-3-(4-{[(1S,2S)-6-chloro-4-cyano-2-[(3R)-3-methylpiperazin-1-yl]-2,3-dihydro-1H-inden-1-yl]oxy}benzenesulfonamido)pyrrolidin-1-yl]ethoxy}ethyl)-1-(4-{[(2-{2-[(3R)-3-(4-{[(1S,2S)-6-chloro-4-cyano-2-[(3R)-3-methylpiperazin-1-yl]-2,3-dihydro-1H-inden-1-yl]oxy}benzenesulfonamido)pyrrolidin-1-yl]ethoxy}ethyl)carbamoyl]amino}butyl)urea] | 0.631 | 101 |
| C[C@@H]1CN([C@H]2Cc3c(Cl)cc(Cl)cc3[C@@H]2Oc2ccc(S(=O)(=O)N[C@H]3CCN(CCOCCNC(=O)NCCCCNC(=O)NCCOCCN4CC[C@H](NS(=O)(=O)c5ccc(O[C@H]6c7cc(Cl)cc(Cl)c7C[C@@H]6N6CCN[C@H](C)C6)cc5)C4)C3)cc2)CCN1 [A-Cl, 3-(2-{2-[(3S)-3-(4-{[(1S,2S)-4,6-dichloro-2-[(3R)-3-methylpiperazin-1-yl]-2,3-dihydro-1H-inden-1-yl]oxy}benzenesulfonamido)pyrrolidin-1-yl]ethoxy}ethyl)-1-(4-{[(2-{2-[(3S)-3-(4-{[(1S,2S)-4,6-dichloro-2-[(3R)-3-methylpiperazin-1-yl]-2,3-dihydro-1H-inden-1-yl]oxy}benzenesulfonamido)pyrrolidin-1-yl]ethoxy}ethyl)carbamoyl]amino}butyl)urea] | 2.51 | 101 |
| C[C@@H]1CN([C@H]2Cc3c(C#N)cc(Cl)cc3[C@@H]2Oc2ccc(S(=O)(=O)N[C@H]3CCN(C(=O)CNC(=O)CNC(=O)NCCCCNC(=O)NCC(=O)NCC(=O)N4CC[C@H](NS(=O)(=O)c5ccc(O[C@H]6c7cc(Cl)cc(C#N)c7C[C@@H]6N6CCN[C@H](C)C6)cc5)C4)C3)cc2)CCN1 [B-CN, N-{2-[(3S)-3-(4-{[(1S,2S)-6-chloro-4-cyano-2-[(3R)-3-methylpiperazin-1-yl]-2,3-dihydro-1H-inden-1-yl]oxy}benzenesulfonamido)pyrrolidin-1-yl]-2-oxoethyl}-2-({[4-({[({2-[(3S)-3-(4-{[(1S,2S)-6-chloro-4-cyano-2-[(3R)-3-methylpiperazin-1-yl]-2,3-dihydro-1H-inden-1-yl]oxy}benzenesulfonamido)pyrrolidin-1-yl]-2-oxoethyl}carbamoyl)methyl]carbamoyl}amino)butyl]carbamoyl}amino)acetamide] | 0.126 | 110 |
| C[C@@H]1CN([C@H]2Cc3c(Cl)cc(Cl)cc3[C@@H]2Oc2ccc(S(=O)(=O)N[C@H]3CCN(C(=O)CNC(=O)CNC(=O)NCCCCNC(=O)NCC(=O)NCC(=O)N4CC[C@H](NS(=O)(=O)c5ccc(O[C@H]6c7cc(Cl)cc(Cl)c7C[C@@H]6N6CCN[C@H](C)C6)cc5)C4)C3)cc2)CCN1 [B-Cl, N-{2-[(3S)-3-(4-{[(1S,2S)-4,6-dichloro-2-[(3R)-3-methylpiperazin-1-yl]-2,3-dihydro-1H-inden-1-yl]oxy}benzenesulfonamido)pyrrolidin-1-yl]-2-oxoethyl}-2-({[4-({[({2-[(3S)-3-(4-{[(1S,2S)-4,6-dichloro-2-[(3R)-3-methylpiperazin-1-yl]-2,3-dihydro-1H-inden-1H-yl]oxy}benzenesulfonamido)pyrrolidin-1-yl]-2-oxoethyl}carbamoyl)methyl]carbamoyl}amino)butyl]carbamoyl}amino)acetamide] | 0.631 | 102 |
| N#Cc1cc(Cl)cc2c1C[C@H](N1CCNCC1)[C@H]2Oc1ccc(S(=O)(=O)NCCOCCOCCNC(=O)NCCCCNC(=O)NCCOCCOCCNS(=O)(=O)c2ccc(O[C@H]3c4cc(Cl)cc(C#N)c4C[C@@H]3N3CCNCC3)c(F)c2)cc1F [D-CN, 3-(2-{2-[2-(4-{[(1S,2S)-6-chloro-4-cyano-2-(piperazin-1-yl)-2,3-dihydro-1H-inden-1-yl]oxy}-3-fluorobenzenesulfonamido)ethoxy]ethoxy}ethyl)-1-(4-{[(2-{2-[2-(4-{[(1S,2S)-6-chloro-4-cyano-2-(piperazin-1-yl)-2,3-dihydro-1H-inden-1-yl]oxy}-3-fluorobenzenesulfonamido)ethoxy]ethoxy}ethyl)carbamoyl]amino}butyl)urea] | 0.501 | 74 |

The next lines start with the values.

| IC50 [nM] | Percent Inhibition [%] | Structure (SMILES) |
| --- | --- | --- |
| 0.501 | 106 | N#Cc1cc(Cl)cc2c1C[C@H](N1CCNCC1)[C@H]2Oc1ccc(S(=O)(=O)N[C@H]2CCN(CCOCCNC(=O)NCCCCNC(=O)NCCOCCN3CC[C@H](NS(=O)(=O)c4ccc(O[C@H]5c6cc(Cl)cc(C#N)c6C[C@@H]5N5CCNCC5)c(F)c4)C3)C2)cc1F [C-CN, 3-(2-{2-[(3 S)-3-(4-{[(1S,2S)-6-chloro-4-cyano-2-(piperazin-1-yl)-2,3-dihydro-1H-inden-1-yl]oxy}-3-fluorobenzenesulfonamido)pyrrolidin-1-yl]ethoxy}ethyl)-1-(4-{[(2-{2-[(3S)-3-(4-{[(1S,2S)-6-chloro-4-cyano-2-(piperazin-1-yl)-2,3-dihydro-1H-inden-1-yl]oxy}-3-fluorobenzenesulfonamido)pyrrolidin-1-yl]ethoxy}ethyl)carbamoyl]amino}butyl)urea] |
| 3.98 | 90 | O=C(NCCCCNC(=O)NCCOCCN1CC[C@H](NS(=O)(=O)c2ccc(O[C@H]3c4cc(Cl)cc(Cl)c4C[C@@H]3N3CCNCC3)c(F)c2)C1)NCCOCCN1CC[C@H](NS(=O)(=O)c2ccc(O[C@H]3c4cc(Cl)cc(Cl)c4C[C@@H]3N3CCNCC3)c(F)c2)C1 [C-Cl, 3-(2-{2-[(3S)-3-(4-{[(1S,2S)-4,6-dichloro-2-(piperazin-1-yl)-2,3-dihydro-1H-inden-1-yl]oxy}-3-fluorobenzenesulfonamido)pyrrolidin-1-yl]ethoxy}ethyl)-1-(4-{[(2-{2-[(3S)-3-(4-{[(1S,2S)-4,6-dichloro-2-(piperazin-1-yl)-2,3-dihydro-1H-inden-1-yl]oxy}-3-fluorobenzenesulfonamido)pyrrolidin-1-yl]ethoxy}ethyl)carbamoyl]amino}butyl)urea] |
| 3.98 |  | O=C(NCCCCNC(=O)NCCOCCOCCNS(=O)(=O)c1ccc(O[C@H]2c3cc(Cl)cc(Cl)c3C[C@@H]2N2CCNCC2)c(F)c1)NCCOCCOCCNS(=O)(=O)c1ccc(O[C@H]2c3cc(Cl)cc(Cl)c3C[C@@H]2N2CCNCC2)c(F)c1 [D-Cl, 3-(2-{2-[2-(4-{[(1S,2S)-4,6-dichloro-2-(piperazin-1-yl)-2,3-dihydro-1H-inden-1-yl]oxy}-3-fluorobenzenesulfonamido)ethoxy]ethoxy}ethyl)-1-(4-{[(2-{2-[2-(4-{[(1S,2S)-4,6-dichloro-2-(piperazin-1-yl)-2,3-dihydro-1H-1-inden-1-yl]oxy}-3-fluorobenzenesulfonamido)ethoxy]ethoxy}ethyl)carbamoyl]amino}butyl)urea] |
